Measured values from article PMC10485906, “Development of a Dihydroquinoline–Pyrazoline GluN2C/2D-Selective Negative Allosteric Modulator of the N-Methyl-D-aspartate Receptor” (ACS Chemical Neuroscience, 2023).
Read-outs that look alike come from different tables or passages of the source.

Experiments:
[1] = target: T1, GluN1/GluN2B (Rattus norvegicus, UniProt Q00960); parameters: method as in PMID 23909910; settings: reproduced for comparison; cited from earlier work
T1 construct: GluN2B (NM_012574.1), GluN2C (NM_012575.3), and GluN2D (NM_022797.2) were provided by; expressed in transfected cells; host or cells: Xenopus laevis oocytes (cRNA injection)
T1 sequence (Q00960 27-1482, other chains not shown): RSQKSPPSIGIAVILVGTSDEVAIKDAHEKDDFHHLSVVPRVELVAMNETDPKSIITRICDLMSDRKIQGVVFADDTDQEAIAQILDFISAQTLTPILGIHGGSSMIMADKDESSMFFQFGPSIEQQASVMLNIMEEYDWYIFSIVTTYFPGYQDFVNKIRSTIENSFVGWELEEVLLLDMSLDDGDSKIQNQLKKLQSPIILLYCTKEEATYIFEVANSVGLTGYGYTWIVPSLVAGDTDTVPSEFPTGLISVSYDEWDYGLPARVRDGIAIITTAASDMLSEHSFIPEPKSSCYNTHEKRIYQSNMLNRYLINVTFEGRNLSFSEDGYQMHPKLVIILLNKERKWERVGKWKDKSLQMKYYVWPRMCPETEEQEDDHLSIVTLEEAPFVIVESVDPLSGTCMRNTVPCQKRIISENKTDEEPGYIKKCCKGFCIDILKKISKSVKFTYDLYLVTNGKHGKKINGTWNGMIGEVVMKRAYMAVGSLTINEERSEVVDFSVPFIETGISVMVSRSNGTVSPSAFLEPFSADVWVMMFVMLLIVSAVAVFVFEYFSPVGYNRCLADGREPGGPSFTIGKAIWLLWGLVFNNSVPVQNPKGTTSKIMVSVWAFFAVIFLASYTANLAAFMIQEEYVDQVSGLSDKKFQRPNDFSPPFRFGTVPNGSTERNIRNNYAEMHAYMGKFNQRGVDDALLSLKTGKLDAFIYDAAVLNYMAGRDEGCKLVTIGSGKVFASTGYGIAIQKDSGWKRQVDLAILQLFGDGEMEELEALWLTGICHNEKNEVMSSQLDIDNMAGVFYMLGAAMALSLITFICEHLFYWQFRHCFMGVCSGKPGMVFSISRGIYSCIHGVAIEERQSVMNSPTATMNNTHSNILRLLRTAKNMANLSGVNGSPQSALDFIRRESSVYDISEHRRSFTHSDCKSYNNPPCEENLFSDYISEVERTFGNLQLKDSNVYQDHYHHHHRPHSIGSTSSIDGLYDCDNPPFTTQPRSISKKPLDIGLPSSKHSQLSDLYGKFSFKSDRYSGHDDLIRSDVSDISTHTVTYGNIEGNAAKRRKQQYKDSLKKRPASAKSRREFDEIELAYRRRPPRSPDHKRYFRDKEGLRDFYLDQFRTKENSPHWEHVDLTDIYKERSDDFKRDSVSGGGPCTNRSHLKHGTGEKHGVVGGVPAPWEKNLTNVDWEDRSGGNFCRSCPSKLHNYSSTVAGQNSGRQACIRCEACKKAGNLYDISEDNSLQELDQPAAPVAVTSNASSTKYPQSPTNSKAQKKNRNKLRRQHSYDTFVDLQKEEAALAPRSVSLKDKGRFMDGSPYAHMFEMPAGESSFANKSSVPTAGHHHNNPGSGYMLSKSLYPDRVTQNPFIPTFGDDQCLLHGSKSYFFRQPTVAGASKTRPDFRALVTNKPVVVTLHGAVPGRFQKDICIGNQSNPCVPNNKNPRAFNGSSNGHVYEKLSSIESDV

[2] = target: GluN1/GluN2C (Rattus norvegicus, UniProt P35439+Q00961); experiment: Whole-cell voltage-clamp recordings, HEK cells, GluN1/GluN2C (agonist dependence); assay type: cell-based; settings: for IC50: inhibitor and glycine preapplied
GluN1/GluN2C (Rattus norvegicus, UniProt P35439+Q00961), sequence (Q00961 20-1237, other chains not shown): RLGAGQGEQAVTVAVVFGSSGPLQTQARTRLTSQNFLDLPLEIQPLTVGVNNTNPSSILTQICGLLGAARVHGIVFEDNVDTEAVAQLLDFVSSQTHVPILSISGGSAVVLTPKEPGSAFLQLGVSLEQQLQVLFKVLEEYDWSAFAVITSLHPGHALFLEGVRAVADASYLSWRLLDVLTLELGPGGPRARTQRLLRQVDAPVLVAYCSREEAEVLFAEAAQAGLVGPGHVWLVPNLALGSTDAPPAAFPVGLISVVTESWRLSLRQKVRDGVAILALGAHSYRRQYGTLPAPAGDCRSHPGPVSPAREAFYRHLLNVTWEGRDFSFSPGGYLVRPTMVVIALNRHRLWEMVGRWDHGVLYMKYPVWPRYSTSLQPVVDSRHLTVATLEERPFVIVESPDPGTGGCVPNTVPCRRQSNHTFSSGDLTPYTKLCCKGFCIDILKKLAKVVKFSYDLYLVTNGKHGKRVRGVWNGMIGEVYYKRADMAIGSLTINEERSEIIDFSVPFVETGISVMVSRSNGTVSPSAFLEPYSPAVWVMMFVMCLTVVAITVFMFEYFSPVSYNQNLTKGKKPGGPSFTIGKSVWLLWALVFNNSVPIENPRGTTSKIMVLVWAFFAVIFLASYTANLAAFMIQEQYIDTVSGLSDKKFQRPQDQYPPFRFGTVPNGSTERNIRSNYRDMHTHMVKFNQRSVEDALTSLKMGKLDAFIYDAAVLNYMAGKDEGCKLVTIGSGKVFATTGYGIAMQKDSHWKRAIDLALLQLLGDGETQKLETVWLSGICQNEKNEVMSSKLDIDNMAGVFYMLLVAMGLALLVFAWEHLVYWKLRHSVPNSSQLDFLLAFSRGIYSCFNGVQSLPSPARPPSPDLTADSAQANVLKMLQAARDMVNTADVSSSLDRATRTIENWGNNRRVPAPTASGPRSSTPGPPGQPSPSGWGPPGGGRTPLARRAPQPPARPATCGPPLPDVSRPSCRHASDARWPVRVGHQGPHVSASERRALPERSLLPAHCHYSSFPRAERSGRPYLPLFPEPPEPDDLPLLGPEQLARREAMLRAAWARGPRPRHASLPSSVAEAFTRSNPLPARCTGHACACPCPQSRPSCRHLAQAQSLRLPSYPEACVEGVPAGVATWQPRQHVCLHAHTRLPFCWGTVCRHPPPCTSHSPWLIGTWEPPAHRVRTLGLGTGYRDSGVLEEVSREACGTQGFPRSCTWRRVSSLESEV
Protocol: (§1) We also evaluated the mechanism of inhibition of GluN1/GluN2C expressed in HEK cells preincubated with glycine for inhibitor 2i (DQP-997-74) by comparing inhibitor potency during the peak and steady-state current responses to glutamate application. […] The deactivation of GluN1/GluN2C receptors (0.53 ± 0.07 s) was slowed by the presence of compound 2i when applied at concentrations of 1 μM (1.3 ± 0.14 s; p = 0.001) and 3 μM (2.3 ± 0.40 s; p < 0.0001) but not at 0.1 μM (0.61 ± 0.07 s; p = 0.965) and 0.3 μM (0.88 ± 0.13 s; p = 0.115; Figure S2).
(§2) HEK293 cells (HEK, ATCC CRL-1573) were plated on glass coverslips pretreated with 0.1 mg/mL poly-D-lysine and cultured in Dulbecco’s modified Eagle medium (DMEM) plus Glutamax (GIBCO 10569-10) supplemented with 10% fetal bovine serum, 10 U/mL of penicillin, and 10 μg/mL of streptomycin at 37 °C and 5% CO2. The cells were transiently transfected with cDNA encoding rat GluN1, GluN2D, and eGFP at a ratio of 1:1:5 by using the calcium phosphate precipitation method.[48] After 24–48 h following the transfection, the cells were perfused with external recording solution that contained (in mM) 3 KCl, 150 NaCl, 0.01 EDTA, 1.0 CaCl2, 10 HEPES, and 22 D-mannitol (the pH was adjusted to 7.4 with NaOH). The patch electrodes (resistance 3–5 MΩ) were prepared from thin-walled glass micropipettes (TW150F-4, World Precision Instruments, Sarasota, FL) by a dual-stage glass micropipette puller (PC-10, Narishige, Tokyo, Japan) and filled with internal solution containing (in mM) 110 D-gluconate, 110 CsOH, 30 CsCl, 5 HEPES, 4 NaCl, 0.5 CaCl2, 2 MgCl2, 5 BAPTA, 2 NaATP, and 0.3 NaGTP. The pH was adjusted to 7.4 with CsOH; osmolality was adjusted to about 300–305 mOsmol/kg. The whole-cell current responses were evoked by application of maximally effectively concentrations of agonists (100 μM glutamate and 30 μM glycine) at a holding potential of −60 mV and recorded using an Axopatch 200B patch-clamp amplifier (Molecular Devices, Union City, CA). A two-barreled theta-glass micropipette was used for rapid solution exchange controlled by a piezoelectric translator (Burleigh Instruments, Newton, NJ). For some experiments, 500 μM NMDA and 250 μM glycine were briefly applied by pressure application from a patch pipette (tip 3–5 MΩ). The current responses were low pass filtered at 2 kHz 8-pole Bessel filter (−3 dB; Frequency Devices) and digitized at 20 kHz using Digidata 1440A acquisition system (Molecular Devices) controlled by Clampex 10.3 (Molecular Devices). All patch experiments were performed at room temperature (23 °C).
(§3) Confidence intervals were determined for the log(IC50). The time course of relaxation during inhibitor application or deactivation following rapid removal of NMDA or glutamate was fitted by the equation [drawing 5] 2 […]
(§4) μM), which is consistent with increased inhibitor potency late in the stimulus train after agonist is bound. […]
(§5) inhibition of recombinant GluN1/GluN2C receptors expressed in HEK cells. GluN1/GluN2C current responses were recorded to glutamate with pre-applied glycine and compound 2i or control (pre-applied glycine and vehicle, 0.1% DMSO; see Figure S2A). The concentration-response curves show peak and steady-state responses normalized to control (Figure S2B). A linear relationship exists between 1/τinhibition and compound 2i concentration from which kON and kOFF can be calculated (see Results, Figure S2C). The deactivation time course following rapid glutamate removal was expanded to show the slowing of receptor deactivation (τdeactivation) by compound 2i (Figure S2D). τdeactivation for individual cells as well as the mean ± SEM are plotted and data were compared by mixed effects model (F (4, 17) = 22.60, p<0.0001; asterisks indicate statistically significant differences, see Results for p -values).
(§6) 2013) and the whole cell current recordings from HEK cells of GluN1/GluN2D responses to glutamate with pre-applied (S)-2a or vehicle (0.1% DMSO). The IC50 for (S)-2a 33 (Figure S3) was 4-fold higher […]

[3] = target: GluN1/GluN2C (Rattus norvegicus, UniProt Q00961); experiment: as above; assay type: cell-based
GluN1/GluN2C (Rattus norvegicus, UniProt Q00961), sequence (Q00961 20-1237, other chains not shown): as above
Protocol: as §1, §2, §3, §4, §5, §6

[4] = HEK293, linear regression of 1/τinhibition vs concentration

koff [2, 4]	kon [2, 4]	Kd ([2]; from kON and kOFF)	IC50 ([2]; read-out: IC50 peak current responses)	IC50 ([2]; read-out: IC50 steady-state responses)	deactivation of GluN1/GluN2C receptors ([3]; 0.1 μM compound)	deactivation of GluN1/GluN2C receptors ([3]; 0.3 μM compound)	deactivation of GluN1/GluN2C receptors ([3]; 1 μM compound)	deactivation of GluN1/GluN2C receptors ([3]; 3 μM compound)	SMILES	I 30 μM / I control GluN2B [1]
									O=C(O)CCC(=O)N1N=C(c2c(-c3ccc(Cl)cc3)c3ccccc3[nH]c2=O)CC1c1ccc(Cl)cc1 (stereo not shown) [2a]	44 ± 1.6 (2,8) %
0.27 s⁻¹	800000 M⁻¹ s⁻¹	330 nM	5000 nM	250 nM	0.61 ± 0.07 s	0.88 ± 0.13 s	1.3 ± 0.14 s	2.3 ± 0.40 s	O=C(O)CC(F)(F)C(=O)N1N=C(c2c(-c3ccc(Cl)cc3)c3ccccc3[nH]c2=O)CC1c1ccc(Cl)cc1 (stereo not shown) [2i]	
